Source: patent publication US20230093099A1, “COMPOUNDS AND METHODS OF TREATING CANCERS” (CULLGEN (SHANGHAI), INC., priority 2019, published 2023)

Target: T1, JAK1 (Homo sapiens, UniProt P23458)
T1 construct: immunoblot of JAK1/3 proteins expressed in RS4;11 cells; endogenous in cells; host or cells: RS4;11 cells
Assay: Immunoblot of JAK1 protein level in RS4;11 cells
Format: cell-based
Details: 24 hours, immunoblot, read-out: concentration required to reduce JAK1 by 50% (DC50)
Experimental: RS4;11 cells were treated with compounds at indicated concentrations for 24 hours. […] The concentrations required to reduce JAK1 by 50% (DC50) were below 5 nM and 35 nM for compound JA-189 and JA213, respectively.
(§1) HEL, RS4;11, MV4;11, Kasumi-1 and other cells were cultured at 37° C. with 5% CO2 in RPMI 1640 or DMEM Medium supplemented with 10% fetal bovine serum. Cells were authenticated using the short tandem repeat (STR) assays. Mycoplasma test results were negative.
(§2) Rabbit anti-JAK1 antibody (3344S), anti-JAK2 antibody (3230S), anti-JAK3 antibody (8827S), anti-TYK2 antibody (14193S), anti-FLT3 antibody (3462S), anti-RET antibody (14556S), anti-phospho-STAT3 (Tyr705) antibody (9145S) and anti-phospho-STAT5 (Tyr694) antibody (4322S) were purchased from Cell Signaling Technology. Rabbit anti-GSPT1 antibody (ab126090) was purchased from Abcam. HRP-conjugated anti-α-tubulin antibody was produced in house. Media and other cell culture reagents were purchased from Thermo Fisher. The CellTiter-Glo Luminescent Assay kit was purchased from Promega.
(§3) Cultured cells were washed with cold PBS once and lysed in cold RIPA buffer supplemented with protease inhibitors and phosphatase inhibitors (Beyotime Biotechnology). The solutions were then incubated at 4° C. for 30 minutes with gentle agitation to fully lyse cells. Cell lysates were centrifuged at 13,000 rpm for 10 minutes at 4° C. and pellets were discarded. Total protein concentrations in the lysates were determined by BCA assays (Beyotime Biotechnology). Cell lysates were mixed with Laemmli loading buffer to 1× and heated at 99° C. for 5 min. Proteins were resolved on SDS-PAGE and visualized by chemiluminescence. Images were taken by a ChemiDoc MP Imaging system (Bio-Rad). Protein bands were quantitated using the accompanied software provided by Bio-Rad.

T1 sequence (P23458 whole entry): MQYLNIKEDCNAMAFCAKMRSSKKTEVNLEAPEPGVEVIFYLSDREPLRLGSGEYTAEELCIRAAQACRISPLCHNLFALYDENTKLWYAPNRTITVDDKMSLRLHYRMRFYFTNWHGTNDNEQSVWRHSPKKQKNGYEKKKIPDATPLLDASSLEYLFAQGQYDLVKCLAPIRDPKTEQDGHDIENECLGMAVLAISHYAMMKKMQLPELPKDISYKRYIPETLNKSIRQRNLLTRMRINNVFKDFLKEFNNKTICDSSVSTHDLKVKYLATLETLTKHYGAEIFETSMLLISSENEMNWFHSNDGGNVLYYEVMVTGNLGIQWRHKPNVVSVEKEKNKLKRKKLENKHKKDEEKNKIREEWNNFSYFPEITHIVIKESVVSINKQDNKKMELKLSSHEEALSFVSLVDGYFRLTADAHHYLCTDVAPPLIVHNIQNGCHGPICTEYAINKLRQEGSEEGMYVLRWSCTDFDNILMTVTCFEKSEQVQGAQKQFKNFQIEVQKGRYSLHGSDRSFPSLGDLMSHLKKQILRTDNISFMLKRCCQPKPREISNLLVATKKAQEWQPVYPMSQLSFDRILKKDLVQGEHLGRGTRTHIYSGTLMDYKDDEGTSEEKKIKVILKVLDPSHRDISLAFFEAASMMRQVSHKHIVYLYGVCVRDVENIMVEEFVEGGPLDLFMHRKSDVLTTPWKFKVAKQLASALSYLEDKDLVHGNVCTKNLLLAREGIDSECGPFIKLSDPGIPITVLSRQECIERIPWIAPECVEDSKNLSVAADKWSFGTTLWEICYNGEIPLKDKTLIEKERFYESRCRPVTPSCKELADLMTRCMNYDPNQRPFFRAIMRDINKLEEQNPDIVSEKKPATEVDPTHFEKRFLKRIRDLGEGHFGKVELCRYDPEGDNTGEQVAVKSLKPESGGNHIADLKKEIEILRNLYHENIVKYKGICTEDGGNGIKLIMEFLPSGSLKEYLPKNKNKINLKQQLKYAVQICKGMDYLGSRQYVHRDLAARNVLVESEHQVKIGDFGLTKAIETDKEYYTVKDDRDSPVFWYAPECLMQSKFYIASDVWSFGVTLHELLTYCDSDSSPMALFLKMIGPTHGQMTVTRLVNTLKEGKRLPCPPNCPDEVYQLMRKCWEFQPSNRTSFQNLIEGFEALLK

| Structure (SMILES) | DC50 [nM] |
| --- | --- |
| CS(=O)(=O)c1ccc(-c2cccc3nc(Nc4ccc(N5CCN(CC(=O)NCCCCCCCCNc6ccc7c(c6)C(=O)N(C6CCC(=O)NC6=O)C7=O)CC5)cc4)nn23)cc1 (stereo not drawn) [JA213] | < 35 |

Test system: RS4;11 cells
Assay: Cell viability assay (CellTiter-Glo) in RS4;11 cells
Format: cell-based
Details: Homo sapiens, 72 h; RS4;11 ALL cells treated for three days; read-out: cell viability inhibition IC50
Summary of the method: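 Three-day compound treatment of RS4;11 ALL cells (5000/well, 3-fold dilution series of 8 or 12 points), with IC50 from a nonlinear least-squares fit to CellTiter-Glo viability data.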

| Structure (SMILES) | IC50 [nM] |
| --- | --- |
| Cc1cnc(Nc2ccc(N3CCN(CC(=O)NCCOCCOCCOCCOCCOCCNc4cccc5c4C(=O)N(C4CCC(=O)NC4=O)C5=O)CC3)cc2)nc1Nc1cccc(S(=O)(=O)NC(C)(C)C)c1 (stereo not drawn) [JA-224, 2-(4-(4-((4-((3-(N-(tert-butyl)sulfamoyl)phenyl)amino)-5-methylpyrimidin-2-yl)amino)phenyl)piperazin-1-yl)-N-(17-((2-(2,6-dioxopiperidin-3-yl)-1,3-dioxoisoindolin-4-yl)amino)-3,6,9,12,15-pentaoxaheptadecyl)acetamide] | < 100 |
| CS(=O)(=O)c1ccc(-c2cccc3nc(Nc4ccc(N5CCN(C(=O)CCCCCCCNc6ccc7c(c6)C(=O)N(C6CCC(=O)NC6=O)C7=O)CC5)cc4)nn23)cc1 (stereo not drawn) [JA-203] | < 100 |

Same assay, conditions: Homo sapiens, 72 h; RS4;11 cells; cell viability, 3 days, CellTiter-Glo; read-out: IC50

| Structure (SMILES) | IC50 [nM] |
| --- | --- |
| Cc1ncsc1-c1ccc(CNC(=O)[C@@H]2C[C@@H](O)CN2C(=O)[C@@H](NC(=O)CCOCCOCCOCCC(=O)N2CCC(n3cc(-c4cnc5cccc(-c6cc(F)c(CN7CCOCC7)c(F)c6)c5n4)cn3)CC2)C(C)(C)C)cc1 [JA-050, (2S,4R)-1-[(2S)-2-[3-[2-[2-[3-[4-[4-[8-[3,5-Difluoro-4-(morpholinomethyl)phenyl]quinoxalin-2-yl]pyrazol-1-yl]-1-piperidyl]-3-oxo-propoxy]ethoxy]ethoxy]propanoylamino]-3,3-dimethyl-butanoyl]-4-hydroxy-N-[[4-(4-methylthiazol-5-yl)phenyl]methyl]pyrrolidine-2-carboxamide] | > 10000 |
| Cc1ncsc1-c1ccc(CNC(=O)[C@@H]2C[C@@H](O)CN2C(=O)[C@@H](NC(=O)COCCOCC(=O)N2CCC(n3cc(-c4cnc5cccc(-c6cc(F)c(CN7CCOCC7)c(F)c6)c5n4)cn3)CC2)C(C)(C)C)cc1 [JA-054, (2S,4R)-1-[(2S)-2-[[2-[2-[2-[4-[4-[8-[3,5-Difluoro-4-(morpholinomethyl)phenyl]quinoxalin-2-yl]pyrazol-1-yl]-1-piperidyl]-2-oxo-ethoxy]ethoxy]acetyl]amino]-3,3-dimethyl-butanoyl]-4-hydroxy-N-[[4-(4-methylthiazol-5-yl)phenyl]methyl]pyrrolidine-2-carboxamide] | > 10000 |
| Cc1ncsc1-c1ccc(CNC(=O)[C@@H]2C[C@@H](O)CN2C(=O)[C@@H](NC(=O)CCOCCOCCNC(=O)CN2CCC(n3cc(-c4cnc5cccc(-c6cc(F)c(CN7CCOCC7)c(F)c6)c5n4)cn3)CC2)C(C)(C)C)cc1 [JA-162, (2S,4R)-1-((S)-14-(tert-Butyl)-1-(4-(4-(8-(3,5-difluoro-4-(morpholinomethyl)phenyl)quinoxalin-2-yl)-1H-pyrazol-1-yl)piperidin-1-yl)-2,12-dioxo-6,9-dioxa-3,13-diazapentadecan-15-oyl)-4-hydroxy-N-(4-(4-methylthiazol-5-yl)benzyl)pyrrolidine-2-carboxamide] | > 10000 |
| Cn1c(=O)n(C2CCC(=O)NC2=O)c2cccc(NCCCCCC(=O)N3CCN(c4ccc(Nc5nc6cccc(-c7ccc(S(C)(=O)=O)cc7)n6n5)cc4)CC3)c21 (stereo not drawn) [JA-284, 3-(3-Methyl-4-((6-(4-(4-((5-(4-(methylsulfonyl)phenyl)-[1,2,4]triazolo[1,5-a]pyridin-2-yl)amino)phenyl)piperazin-1-yl)-6-oxohexyl)amino)-2-oxo-2,3-dihydro-1H-benzo[d]imidazol-1-yl)piperidine-2,6-dione] | > 500 |
| Cc1cnc(Nc2ccc(N3CCN(CC(=O)NCCOCCOCCOCCOCCOCCNc4cccc5c4C(=O)N(C4CCC(=O)NC4=O)C5=O)CC3)cc2)nc1Nc1cccc(S(=O)(=O)NC(C)(C)C)c1 (stereo not drawn) [JA-224, 2-(4-(4-((4-((3-(N-(tert-butyl)sulfamoyl)phenyl)amino)-5-methylpyrimidin-2-yl)amino)phenyl)piperazin-1-yl)-N-(17-((2-(2,6-dioxopiperidin-3-yl)-1,3-dioxoisoindolin-4-yl)amino)-3,6,9,12,15-pentaoxaheptadecyl)acetamide] | 105 |
| CS(=O)(=O)c1ccc(-c2cccc3nc(Nc4ccc(N5CCN(C(=O)CCCCCCCNc6ccc7c(c6)C(=O)N(C6CCC(=O)NC6=O)C7=O)CC5)cc4)nn23)cc1 (stereo not drawn) [JA-203] | 22.8 |
| Cc1cnc(Nc2ccc(N3CCN(CC(=O)NCCOCCOCCNc4cccc5c4C(=O)N(C4CCC(=O)NC4=O)C5=O)CC3)cc2)nc1Nc1cccc(S(=O)(=O)NC(C)(C)C)c1 (stereo not drawn) [JA-086, 2-(4-(4-((4-((3-(N-(tert-Butyl)sulfamoyl)phenyl)amino)-5-methylpyrimidin-2-yl)amino)phenyl)piperazin-1-yl)-N-(2-(2-(2-((2-(2,6-dioxopiperidin-3-yl)-1,3-dioxoisoindolin-4-yl)amino)ethoxy)ethoxy)ethyl)acetamide] | 564 |
| CS(=O)(=O)c1ccc(-c2cccc3nc(Nc4ccc(N5CCN(C(=O)CCOCCOCCOCCOCCOCCNc6cccc7c6C(=O)N(C6CCC(=O)NC6=O)C7=O)CC5)cc4)nn23)cc1 (stereo not drawn) [JA-077, 2-(2,6-Dioxo-piperidin-3-yl)-4-(2-{2-[2-(2-{2-[3-(4-{4-[5-(4-methanesulfonyl-phenyl)-[1,2,4]triazolo[1,5-a]pyridin-2-ylamino]-phenyl}-piperazin-1-yl)-3-oxo-propoxy]-ethoxy}-ethoxy)-ethoxy]-ethoxy}-ethylamino)-isoindole-1,3-dione] | 406 |
| Cc1cnc(Nc2ccc(N3CCN(C(=O)CCOCCNc4ccc5c(c4)C(=O)N(C4CCC(=O)NC4=O)C5=O)CC3)cc2)nc1Nc1cccc(S(=O)(=O)NC(C)(C)C)c1 (stereo not drawn) [JA-232, N-(tert-butyl)-3-((2-((4-(4-(3-(2-((2-(2,6-dioxopiperidin-3-yl)-1,3-dioxoisoindolin-5-yl)amino)ethoxy)propanoyl)piperazin-1-yl)phenyl)amino)-5-methylpyrimidin-4-yl)amino)benzenesulfonamide] | > 10000 |

The remaining lines, values ahead:

| IC50 [nM] | Structure (SMILES) |
| --- | --- |
| > 10000 | Cc1ncsc1-c1ccc(CNC(=O)[C@@H]2C[C@@H](O)CN2C(=O)[C@@H](NC(=O)CCCCCCNC(=O)CN2CCN(c3ccc(Nc4nc5cccc(-c6ccc(S(C)(=O)=O)cc6)n5n4)cc3)CC2)C(C)(C)C)cc1 [JA-123, (2S,4R)-1-((S)-3,3-Dimethyl-2-(7-(2-(4-(4-((5-(4-(methylsulfonyl)phenyl)-[1,2,4]triazolo[1,5-a]pyridin-2-yl)amino)phenyl)piperazin-1-yl)acetamido)heptanamido)butanoyl)-4-hydroxy-N-(4-(4-methylthiazol-5-yl)benzyl)pyrrolidine-2-carboxamide] |
| > 10000 | CS(=O)(=O)c1ccc(-c2cccc3nc(Nc4ccc(N5CCN(CC(=O)NCCCCCCNc6cccc7c6C(=O)N(C6CCC(=O)NC6=O)C7=O)CC5)cc4)nn23)cc1 (stereo not drawn) [JA-112, N-(6-((2-(2,6-Dioxopiperidin-3-yl)-1,3-dioxoisoindolin-4-yl)amino)hexyl)-2-(4-(4-((5-(4-(methylsulfonyl)phenyl)-[1,2,4]triazolo[1,5-a]pyridin-2-yl)amino)phenyl)piperazin-1-yl)acetamide] |
| > 10000 | Cc1ncsc1-c1ccc(CNC(=O)[C@@H]2C[C@@H](O)CN2C(=O)[C@@H](NC(=O)CCOCCOCCNC(=O)CN2CCN(c3ccc(Nc4nc5cccc(-c6ccc(S(C)(=O)=O)cc6)n5n4)cc3)CC2)C(C)(C)C)cc1 [JA-135, (2S,4R)-1-((S)-14-(tert-Butyl)-1-(4-(4-((5-(4-(methylsulfonyl)phenyl)-[1,2,4]triazolo[1,5-a]pyridin-2-yl)amino)phenyl)piperazin-1-yl)-2,12-dioxo-6,9-dioxa-3,13-diazapentadecan-15-oyl)-4-hydroxy-N-(4-(4-methylthiazol-5-yl)benzyl)pyrrolidine-2-carboxamide] |
| > 10000 | Cc1ncsc1-c1ccc(CNC(=O)[C@@H]2C[C@@H](O)CN2C(=O)[C@@H](NC(=O)CCCCCNC(=O)CN2CCC(n3cc(-c4cnc5cccc(-c6cc(F)c(CN7CCOCC7)c(F)c6)c5n4)cn3)CC2)C(C)(C)C)cc1 [JA-164, (2S,4R)-1-((S)-2-(6-(2-(4-(4-(8-(3,5-Difluoro-4-(morpholinomethyl)phenyl)quinoxalin-2-yl)-1H-pyrazol-1-yl)piperidin-1-yl)acetamido)hexanamido)-3,3-dimethylbutanoyl)-4-hydroxy-N-(4-(4-methylthiazol-5-yl)benzyl)pyrrolidine-2-carboxamide] |
| > 10000 | Cc1ncsc1-c1ccc(CNC(=O)[C@@H]2C[C@@H](O)CN2C(=O)[C@@H](NC(=O)CCOCCNC(=O)CN2CCN(c3ccc(Nc4nc5cccc(-c6ccc(S(C)(=O)=O)cc6)n5n4)cc3)CC2)C(C)(C)C)cc1 [JA-136, (2S,4R)-1-((S)-3,3-Dimethyl-2-(3-(2-(2-(4-(4-((5-(4-(methylsulfonyl)phenyl)-[1,2,4]triazolo[1,5-a]pyridin-2-yl)amino)phenyl)piperazin-1-yl)acetamido)ethoxy)propanamido)butanoyl)-4-hydroxy-N-(4-(4-methylthiazol-5-yl)benzyl)pyrrolidine-2-carboxamide] |

Target: T2, GSPT1 (Homo sapiens, UniProt P15170)
T2 construct: immunoblot of GSPT1 and tubulin expressed in RS4:11 cells; endogenous in cells; host or cells: RS4;11 cells
Assay: Immunoblot of GSPT1 protein level in RS4;11 cells
Format: cell-based
Details: 16 hours, immunoblot, read-out: concentration required to reduce GSPT1 by 50% (DC50)
Experimental: RS4;11 cells were treated with compounds at indicated concentrations for 16 hours. […] The concentrations required to reduce GSPT1 by 50% (DC50) were below 2 nM for compound JA-189 and 10 nM JA213.
as §1, §2, §3

T2 sequence (P15170 whole entry): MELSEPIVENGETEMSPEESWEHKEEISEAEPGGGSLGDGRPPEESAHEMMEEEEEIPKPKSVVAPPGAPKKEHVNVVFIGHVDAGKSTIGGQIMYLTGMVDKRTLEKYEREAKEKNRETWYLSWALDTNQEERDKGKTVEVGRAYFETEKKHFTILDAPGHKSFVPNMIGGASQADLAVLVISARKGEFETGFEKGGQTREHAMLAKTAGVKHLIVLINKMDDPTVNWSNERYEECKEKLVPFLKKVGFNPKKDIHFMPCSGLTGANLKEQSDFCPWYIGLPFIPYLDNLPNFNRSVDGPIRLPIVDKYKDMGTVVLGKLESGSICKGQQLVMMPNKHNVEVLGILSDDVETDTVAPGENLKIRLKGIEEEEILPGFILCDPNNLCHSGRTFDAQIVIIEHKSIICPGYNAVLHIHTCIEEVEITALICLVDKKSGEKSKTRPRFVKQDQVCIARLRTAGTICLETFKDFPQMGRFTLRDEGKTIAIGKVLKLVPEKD

| Structure (SMILES) | DC50 [nM] |
| --- | --- |
| CS(=O)(=O)c1ccc(-c2cccc3nc(Nc4ccc(N5CCN(CC(=O)NCCCCCCCCNc6ccc7c(c6)C(=O)N(C6CCC(=O)NC6=O)C7=O)CC5)cc4)nn23)cc1 (stereo not drawn) [JA213] | < 10 |
